The source of these data is ChEMBL document CHEMBL1152170 (Bioorg Med Chem Lett, 2008).

Series [1] can be described thus: Permeability across human Caco-2 cells. Type of series: ADME, cell-based. The following applies: read-out: permeability.
Series [2] can be described thus: Stability in rabbit liver microsome after 1 hr. Type of series: ADME, Oryctolagus cuniculus. The conditions noted are these: liver microsomes, read-out: Stability.

In the case of `COc1ccc(CNc2ncnc3c(CCO)c(OC)c(NC(C)=O)cc23)cc1Cl`, in series [1], the Papp was 17.3 ×10⁻⁶ cm/s. With `CCCc1c(OC)c(NC(=O)C(F)(F)F)cc2c(NCc3ccc(OC)c(Cl)c3)ncnc12`, the remaining at 1 h in series [2] was more than 80%. On to `CCC(=O)Nc1cc2c(NCc3ccc(OC)c(Cl)c3)ncnc2c(CCO)c1OC`, for which the remaining at 1 h in series [2] is more than 80%. The Papp in series [1] is 46.9 ×10⁻⁶ cm/s.
